Assay results from publication PMC5987058, “Therapeutic Potential of a Scorpion Venom-Derived Antimicrobial Peptide and Its Homologs Against Antibiotic-Resistant Gram-Positive Bacteria” (Frontiers in Microbiology, 2018).
Values after ≈ are worked out from the molar mass of the structure shown. Like-named read-outs stand apart in the source and are kept apart here. Ends that are not written are not given here.

Tests used:
[1] = tested on: Staphylococcus aureus AB94004; assay: MIC, broth microdilution; format: cell-based; conditions: legend of Figure 6
Experimental: (§1) The antimicrobial activity was determined via a broth microdilution assay according to the procedure recommended by the Clinical and Laboratory Standards Institute with some modifications ([Hou et al., 2011]; [Li et al., 2016]). Bacteria were cultured in Luria-Bertani (LB) broth to OD600 = 0.6 at 37°C, then diluted to 10^5–10^6 CFU/mL in LB medium. Peptides were serially double diluted to a gradient concentration range from 48.3 to 1.5 μM in physiological saline. Eighty microliters of the bacterial suspension and 20 μL of diluted peptide at varying concentrations were added to 96-well plates, and then incubated for 16–18 h at 37°C with continuous shaking at 250 rpm. The antimicrobial activity of ampicillin and kanamycin were also tested as positive controls. Experiments were performed in triplicate. The minimum inhibitory concentration (MIC) was determined as the lowest peptide concentration at which no bacterial growth was observed.

[2] = tested on: Staphylococcus aureus ATCC25923; conditions: comparison values; ref Zeng et al., 2004, 2012; Cao et al., 2012a; cited from earlier work
Excerpt: Table 1 In Vitro antimicrobial activities of marcin-18 and its homologs compared with other peptides and antibiotics. | column: MIC (μM) / BmKn2; MIC (μM) / Kana

[3] = tested on: Bacillus subtilis AB91021; conditions: comparison values; ref Zeng et al., 2004, 2012; Cao et al., 2012a; cited from earlier work
Excerpt: Table 1 In Vitro antimicrobial activities of marcin-18 and its homologs compared with other peptides and antibiotics. | column: MIC (μM) / BmKn2; MIC (μM) / BmKb1; MIC (μM) / Kana

[4] = tested on: Escherichia coli ATCC25922; conditions: comparison values; ref Zeng et al., 2004, 2012; Cao et al., 2012a; cited from earlier work
Excerpt: (§2) Table 1 In Vitro antimicrobial activities of marcin-18 and its homologs compared with other peptides and antibiotics. | column: MIC (μM) / BmKn2; MIC (μM) / Amp; MIC (μM) / Kana

[5] = tested on: Staphylococcus aureus AB94004; conditions: comparison values; ref Zeng et al., 2004, 2012; Cao et al., 2012a; cited from earlier work
Excerpt: as §2

[6] = tested on: Bacillus subtilis AB91021; assay: MIC, broth microdilution; format: cell-based; conditions: LB medium, 10^5–10^6 CFU/mL, 16–18 h at 37°C, triplicate
Experimental: as §1

[7] = tested on: Bacillus thuringiensis AB92037; assay: MIC, broth microdilution; format: cell-based; conditions: LB medium, 10^5–10^6 CFU/mL, 16–18 h at 37°C, triplicate
Experimental: as §1

Escherichia coli AB94012 = assay: MIC, broth microdilution; format: cell-based; conditions: LB medium, 10^5–10^6 CFU/mL, 16–18 h at 37°C, triplicate
Experimental: as §1

[8] = tested on: Escherichia coli ATCC25922; assay: MIC, broth microdilution; format: cell-based; conditions: LB medium, 10^5–10^6 CFU/mL, 16–18 h at 37°C, triplicate
Experimental: as §1

[9] = tested on: Micrococcus luteus AB93113; assay: MIC, broth microdilution; format: cell-based; conditions: LB medium, 10^5–10^6 CFU/mL, 16–18 h at 37°C, triplicate
Experimental: as §1

[10] = tested on: Pseudomonas aeruginosa ATCC9027; assay: MIC, broth microdilution; format: cell-based; conditions: LB medium, 10^5–10^6 CFU/mL, 16–18 h at 37°C, triplicate
Experimental: as §1

[11] = tested on: Staphylococcus aureus AB208193; assay: MIC, broth microdilution; format: cell-based; conditions: LB medium, 10^5–10^6 CFU/mL, 16–18 h at 37°C, triplicate
Experimental: as §1

[12] = tested on: Staphylococcus aureus ATCC25923; assay: MIC, broth microdilution; format: cell-based; conditions: LB medium, 10^5–10^6 CFU/mL, 16–18 h at 37°C, triplicate
Experimental: as §1

[13] = tested on: Staphylococcus aureus ATCC6538; assay: MIC, broth microdilution; format: cell-based; conditions: LB medium, 10^5–10^6 CFU/mL, 16–18 h at 37°C, triplicate
Experimental: as §1

[14] = tested on: Staphylococcus epidermidis AB208187; assay: MIC, broth microdilution; format: cell-based; conditions: LB medium, 10^5–10^6 CFU/mL, 16–18 h at 37°C, triplicate
Experimental: as §1

[15] = tested on: Staphylococcus epidermidis AB208188; assay: MIC, broth microdilution; format: cell-based; conditions: LB medium, 10^5–10^6 CFU/mL, 16–18 h at 37°C, triplicate
Experimental: as §1

MRSA P1374 = assay: MIC, broth microdilution; format: cell-based, Staphylococcus aureus; conditions: methicillin-resistant clinical isolate, LB medium, 10^5–10^6 CFU/mL, 16–18 h at 37°C, triplicate
Experimental: as §1

MRSA P1381 = assay: MIC, broth microdilution; format: cell-based, Staphylococcus aureus; conditions: methicillin-resistant clinical isolate, LB medium, 10^5–10^6 CFU/mL, 16–18 h at 37°C, triplicate
Experimental: as §1

PRSA P1389 = assay: MIC, broth microdilution; format: cell-based, Staphylococcus aureus; conditions: penicillin-resistant clinical isolate, LB medium, 10^5–10^6 CFU/mL, 16–18 h at 37°C, triplicate
Experimental: as §1

S. aureus AB94004 = assay: SYTOX green fluorescence measurement (membrane integrity); format: cell-based, Staphylococcus aureus; conditions: positive control; 5 μM SYTOX green; n = 3
Experimental: S. aureus AB94004 were cultured to exponential phase (ca. 10^7 CFU/mL), centrifuged and suspended in physiological saline. Then the fluorescence dye SYTOX green (Invitrogen) was added at a final concentration of 5 μM. After incubation for 10 min, 50 μL bacterial culture and equal volume of peptides serially diluted in physiological saline at final concentrations of 1 × MIC, 2 × MIC, and 4 × MIC were added in a Greiner 96-well flat-bottom black plate. Physiological saline and MSI 78 were used as negative and positive controls. Fluorescence was measured over 30 min at the excitation and emission wavelengths of 488 and 525 nm, respectively.

For `NC[C@H]1O[C@H](O[C@H]2[C@H](O)[C@@H](O[C@H]3O[C@H](CO)[C@@H](O)[C@H](N)[C@H]3O)[C@H](N)C[C@@H]2N)[C@H](O)[C@@H](O)[C@@H]1O` [Kana, kanamycin], the “MIC of control substances” value [1] is given as 5.4 µM, the MIC [2] is given as 10.7 µM (≈ 5.18 µg/mL) and the MIC [3] is given as 42.9 µM (≈ 20.8 µg/mL). For the same compound, the MIC [4] was 21.5 µM (≈ 10.4 µg/mL) and the MIC [5] was 5.4 µM (≈ 2.62 µg/mL).

With FFGHLFKLATKIIPSLFQ-NH2 [Meucin-18] the MIC [6] was 3.0 µM, the MIC [7] was 3.0 µM and the MIC (Escherichia coli AB94012) was 23.7 µM. For the same compound, the MIC [8] was 11.9 µM, the MIC [9] was 47.5 µM and the MIC [10] was 11.9 µM. For the same compound, the MIC [11] was 3.0 µM, the MIC [12] was 3.0 µM and the MIC [13] was 1.5 µM. The MIC [14] was 3.0 µM, the MIC [15] was 1.5 µM and the MIC (MRSA P1374) was 3.0 µM. For the same compound, the MIC (MRSA P1381) was 1.5 µM and the MIC (PRSA P1389) was 3.0 µM.

For “GIGKFLKKAKKFGKAFVKILKK-NH2 (C-terminus assumed) [MSI 78]”, the “MIC of control substances” value [1] was 2.5 µM and the SYTOX green fluorescence (S. aureus AB94004) was “stable increase”.

For `CC[C@H](C)[C@H](NC(=O)CN)C(=O)NCC(=O)N[C@@H](C)C(=O)N[C@H](C(=O)N[C@@H](CC(C)C)C(=O)N[C@@H](CCCCN)C(=O)N[C@H](C(=O)N[C@@H](CC(C)C)C(=O)N[C@H](C(=O)N[C@H](C(=O)NCC(=O)N[C@@H](CC(C)C)C(=O)N1CCC[C@H]1C(=O)N[C@@H](C)C(=O)N[C@@H](CC(C)C)C(=O)N[C@H](C(=O)N[C@@H](CO)C(=O)N[C@@H](Cc1c[nH]c2ccccc12)C(=O)N[C@H](C(=O)N[C@@H](CCCCN)C(=O)N[C@@H](CCCNC(=N)N)C(=O)N[C@@H](CCCCN)C(=O)N[C@@H](CCCNC(=N)N)C(=O)N[C@@H](CCC(N)=O)C(=O)N[C@@H](CCC(N)=O)C(N)=O)[C@@H](C)CC)[C@@H](C)CC)[C@@H](C)O)[C@@H](C)O)C(C)C)C(C)C` [melittin], the “MIC of control substances” value [1] was 2.2 µM.
